# Experimental data reported in patent publication US9896551B2, “Phosphaphenanthrene-based compound and related preparation method and application” (Elite Electronic Material(Zhongshan) Co., Ltd., priority 2015, dated 2018).
# Columns and labels:
# Type in all cases: physicochemical
# [1] = Dissolution of the phosphaphenanthrene-based compound in different solvents; set-up: key: 1: “easily soluble”, which means the solute is dissolved with stirring at room temperature and the solution is clear; “soluble”, which means the solute is dissolved with stirring when being heated up to […] and the solution is clear; 3: “insoluble”, which means the solute is not dissolve even being heated and stirred; details: Methyl ethyl ketone; about 5 grams in about 30 ml
# Procedure: (§1) In addition, about 5 grams per serving of the phosphaphenanthrene-based compound are weighed and added to about 30 ml of solvents respectively. Stir with or without heating the solution to dissolve the solute. Observe the dissolution of the phosphaphenanthrene-based compound in different solvents, and the results are shown in Table 1, wherein the numeral “1” represents “easily soluble”, which means the solute is dissolved with stirring at room temperature and the solution is clear; the numeral “2” represents “soluble”, which means the solute is dissolved with stirring when being heated up to 120° C. and the solution is clear; the numeral “3” represents “insoluble”, which means the solute is not dissolve even being heated and stirred.
# In addition, about 5 grams per serving of the phosphaphenanthrene-based compound (as shown in formula (XVI)) are weighed and added to about 30 ml of solvents respectively. Stir with or without heating to dissolve the solute. […]
# [2] = Test Example 1: solvent compatibility, observed by naked eyes; details: for Compatibility in solvent (precipitation, appearance of solution): stand for 12 hours; for Compatibility in solvent (solubility, appearance of solution): the initial state
# Excerpt: The phosphaphenanthrene-based compound of the embodiment 2, the conventional phosphaphenanthrene-based compound of the comparison 1 and the conventional phosphaphenanthrene-based compound of the comparison 2 are used as test samples of the test example 1. The test samples are respectively dissolved in toluene, methyl ethyl ketone, and acetone, so as to give a test to the compatibilities of the test samples in these solvents.
# [3] = Dissolution of the phosphaphenanthrene-based compound in different solvents; set-up: key: 1: “easily soluble”, which means the solute is dissolved with stirring at room temperature and the solution is clear; “soluble”, which means the solute is dissolved with stirring when being heated up to 120° C. and the solution is clear; 3: “insoluble”, which means the solute is not dissolve even being heated and stirred; details: about 5 grams in about 30 ml
# Procedure: as §1
# In addition, about 5 grams per serving of the phosphaphenanthrene-based compound (as shown in formula (XVI)) are weighed and added to about 30 ml of solvents respectively. Stir with or without heating to dissolve the solute. Observe dissolution of the phosphaphenanthrene-based compound in different solvents, and the results are shown in Table 2, wherein the numeral “1” represents “easily soluble”, which means the solute is dissolved with stirring at room temperature and the solution is clear; the numeral “2” represents “soluble”, which means the solute is dissolved with stirring when being heated up to […] and the solution is clear; the numeral “3” represents “insoluble”, which means the solute is not dissolve even being heated and stirred.
SMILES,Dissolution [1],"Compatibility in solvent (precipitation, appearance of solution) ([2]; Acetone)","Compatibility in solvent (solubility, appearance of solution) ([2]; Acetone)","Compatibility in solvent (precipitation, appearance of solution) ([2]; Methyl ethyl ketone)","Compatibility in solvent (solubility, appearance of solution) ([2]; Methyl ethyl ketone)","Compatibility in solvent (precipitation, appearance of solution) ([2]; Toluene)","Compatibility in solvent (solubility, appearance of solution) ([2]; Toluene)",Dissolution ([3]; Dimethylacetamide),Dissolution ([3]; Dimethylformamide),Dissolution ([3]; Toluene),Dissolution ([3]; 1-Methoxy-2-propyl acetate (PMA)),Dissolution ([3]; Cyclohexanone (CYC)),Dissolution ([3]; Dimethylacetamide (DMAC)),Dissolution ([3]; Methanol (MT)),Dissolution ([3]; Methyl ethyl ketone (MEK)),"Dissolution ([3]; N,N-Dimethylformamide (DMF))",Dissolution ([3]; Proprylene glycol monomethyl ether (PM)),Dissolution ([3]; Toluene (TL))
C=Cc1ccc(COC(c2ccc(C(OCc3ccc(C=C)cc3)P3(=O)Oc4ccccc4-c4ccccc43)cc2)P2(=O)Oc3ccccc3-c3ccccc32)cc1 (stereo not drawn) [Embodiment 2],2,No,"Soluble, clear",No,"Soluble, clear",No,"Soluble, clear",1,1,1,–,–,–,–,–,–,–,–
C=Cc1ccc(COc2ccc(-c3ccc(OCc4ccc(C=C)cc4)c(P4(=O)Oc5ccccc5-c5ccccc54)c3)cc2P2(=O)Oc3ccccc3-c3ccccc32)cc1 (stereo not drawn) [Comparison 2],–,Precipitated,"Soluble, clear",Precipitated,"Soluble, clear",No,"Soluble, clear",–,–,–,–,–,–,–,–,–,–,–
C=Cc1ccc(COc2ccc(OCc3ccc(C=C)cc3)c(P3(=O)Oc4ccccc4-c4ccccc43)c2)cc1 (stereo not drawn) [Comparison 1],–,Precipitated,"Soluble, clear",Precipitated,"Soluble, clear",No,"Soluble, clear",–,–,–,–,–,–,–,–,–,–,–
O=P1(C(O)c2ccc(C(O)P3(=O)Oc4ccccc4-c4ccccc43)cc2)Oc2ccccc2-c2ccccc21 (stereo not drawn) [Embodiment 1],–,–,–,–,–,–,–,–,–,–,3,3,3,3,3,2,3,3
